# From patent US20120058989A1, “ANTIBACTERIAL FLUOROQUINOLONE ANALOGS” (Achaogen, Inc., priority 2008, published 2012)
# Key:
# Assay in all cases: MIC, CLSI broth microdilution
# Type in all cases: cell-based
# [1] = tested on: S. aureus ASAU002 (Fluoroquinolone-susceptible, ATCC33591 (MRSA)); conditions: Table 3
# In short: (§1)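 Broth microdilution per CLSI M7-A7, with serial two-fold compound dilutions in Mueller Hinton Broth mixed 1:1 with inoculum. Colonies from a previous-day agar plate were suspended in saline to a final 5×10^5 CFU/mL. Plates were incubated 20 hours at 35° C. in ambient air.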
# [2] = tested on: E. coli AECO086 (Fluoroquinolone-resistant); conditions: Table 3
# In short: as §1
# [3] = tested on: S. pneumoniae ASPN1027 (Fluoroquinolone-resistant)
# In short: as §1
# [4] = tested on: P. aeruginosa APAE001 (Fluoroquinolone-susceptible, ATCC27853)
# In short: as §1
# [5] = tested on: A. baumannii AABA1009 (Fluoroquinolone-resistant); conditions: Table 2
# In short: as §1
# [6] = tested on: S. pneumoniae ASPN1018 (Fluoroquinolone-resistant); conditions: Table 3
# In short: as §1
# [7] = tested on: E. coli AECO001 (Fluoroquinolone susceptible, ATCC25922)
# In short: as §1
# [8] = tested on: P. aeruginosa APAE054 (Fluoroquinolone-resistant)
# In short: as §1
# [9] = tested on: A. baumannii AABA1020 (Fluoroquinolone-resistant); conditions: Table 3
# In short: as §1
# [10] = tested on: E. coli AECO002 (Fluoroquinolone susceptible); conditions: Table 3
# In short: as §1
# [11] = tested on: S. pneumoniae ASPN002 (Fluoroquinolone-susceptible, ATCC10813); conditions: Table 3
# In short: as §1
# [12] = tested on: S. aureus ASAU1033 (Fluoroquinolone-resistant); conditions: Table 3
# In short: as §1
# [13] = tested on: S. aureus ASAU1031 (Fluoroquinolone-resistant)
# In short: as §1
# [14] = tested on: S. aureus ASAU001 (Fluoroquinolone-susceptible, ATCC29213)
# In short: as §1
# [15] = tested on: P. aeruginosa APAE002 (Fluoroquinolone susceptible); conditions: Table 3
# In short: as §1
# [16] = tested on: E. coli AECO066 (Fluoroquinolone-resistant)
# In short: as §1
# [17] = tested on: S. pneumoniae ASPN001 (Fluoroquinolone-susceptible, ATCC49619)
# In short: as §1
# [18] = tested on: A. baumannii AABA1065 (Fluoroquinolone-susceptible)
# In short: as §1
SMILES,MIC ASAU002 [1],MIC AECO086 [2],MIC ASPN 1027 ([3]; Table 2),MIC ASPN 1027 ([3]; Table 3),MIC APAE 001 ([4]; Table 2),MIC APAE 001 ([4]; Table 3),MIC AABA 1009 [5],MIC ASPN1018 [6],"MIC AECO 001 ([7]; Table 2, 35° C., 20 hours)",MIC AECO 001 ([7]; Table 3),MIC APAE 054 ([8]; Table 2),MIC APAE 054 ([8]; Table 3),MIC AABA1020 [9],MIC AECO002 [10],MIC ASPN002 [11],MIC ASAU1033 [12],MIC ASAU 1031 ([13]; Table 2),MIC ASAU 1031 ([13]; Table 3),MIC ASAU 001 ([14]; Table 2),MIC ASAU 001 ([14]; Table 3),also measured
"N[C@@H]1CCN2c3c(F)cc4c(=O)c(C(=O)O)cn(C5CC5)c4c3C=CC[C@H]12.O=C(O)C(F)(F)F [16/16, (7aR,8R)-8-Amino-4-cyclopropyl-12-fluoro-1-oxo-4,7,7a,8,9,10-hexahydro-1H-pyrrolo[1′,2′:1,7]azepino[2,3-h]quinoline-2-carboxylic acid trifluoroacetate]",A (MIC's of less than 1.0 = A),B (MIC's of 1.0 μg/mL to 2.0 μg/mL = B),B (MIC's of greater than 1.0 μg/mL to 8.0 μg/mL = B),A (MIC's of less than 1.0 = A),A (MIC's of 1.0 μg/mL or less = A),A (MIC's of less than 1.0 = A),B (MIC's of greater than 1.0 μg/mL to 8.0 μg/mL = B),A (MIC's of less than 1.0 = A),A (MIC's of 1.0 μg/mL or less = A),A (MIC's of less than 1.0 = A),C (MIC's of greater than 8.0 μg/mL = C),D (MIC's of greater than 8.0 μg/mL = D),C (MIC's of 2.0 μg/mL to 8.0 μg/mL = C),A (MIC's of less than 1.0 = A),A (MIC's of less than 1.0 = A),B (MIC's of 1.0 μg/mL to 2.0 μg/mL = B),A (MIC's of 1.0 μg/mL or less = A),A (MIC's of less than 1.0 = A),A (MIC's of 1.0 μg/mL or less = A),A (MIC's of less than 1.0 = A),MIC APAE002 [15]: A (MIC's of less than 1.0 = A); MIC AECO 066 ([16]; Table 2): B (MIC's of greater than 1.0 μg/mL to 8.0 μg/mL = B); MIC AECO 066 ([16]; Table 3): C (MIC's of 2.0 μg/mL to 8.0 μg/mL = C); MIC ASPN 001 ([17]; Table 2): A (MIC's of 1.0 μg/mL or less = A); MIC ASPN 001 ([17]; Table 3): A (MIC's of less than 1.0 = A); MIC AABA 1065 ([18]; Table 2): A (MIC's of 1.0 μg/mL or less = A); MIC AABA 1065 ([18]; Table 3): A (MIC's of less than 1.0 = A)
"NC1CCN2c3c(F)cc4c(=O)c(C(=O)O)cn(C5CC5)c4c3CCCC12.O=C(O)C(F)(F)F [16/18, (7aR,8R)-8-Amino-4-cyclopropyl-12-fluoro-1-oxo-4,5,6,7,7a,8,9,10-octahydro-1H-pyrrolo[1′,2′:1,7]azepino[2,3-h]quinoline-2-carboxylic acid trifluoroacetate]",A (MIC's of less than 1.0 = A),C (MIC's of 2.0 μg/mL to 8.0 μg/mL = C),B (MIC's of greater than 1.0 μg/mL to 8.0 μg/mL = B),A (MIC's of less than 1.0 = A),A (MIC's of 1.0 μg/mL or less = A),A (MIC's of less than 1.0 = A),B (MIC's of greater than 1.0 μg/mL to 8.0 μg/mL = B),B (MIC's of 1.0 μg/mL to 2.0 μg/mL = B),A (MIC's of 1.0 μg/mL or less = A),A (MIC's of less than 1.0 = A),C (MIC's of greater than 8.0 μg/mL = C),D (MIC's of greater than 8.0 μg/mL = D),D (MIC's of greater than 8.0 μg/mL = D),A (MIC's of less than 1.0 = A),A (MIC's of less than 1.0 = A),C (MIC's of 2.0 μg/mL to 8.0 μg/mL = C),B (MIC's of greater than 1.0 μg/mL to 8.0 μg/mL = B),A (MIC's of less than 1.0 = A),A (MIC's of 1.0 μg/mL or less = A),A (MIC's of less than 1.0 = A),MIC APAE002 [15]: A (MIC's of less than 1.0 = A); MIC AECO 066 ([16]; Table 2): B (MIC's of greater than 1.0 μg/mL to 8.0 μg/mL = B); MIC AECO 066 ([16]; Table 3): C (MIC's of 2.0 μg/mL to 8.0 μg/mL = C); MIC ASPN 001 ([17]; Table 2): A (MIC's of 1.0 μg/mL or less = A); MIC ASPN 001 ([17]; Table 3): A (MIC's of less than 1.0 = A); MIC AABA 1065 ([18]; Table 2): A (MIC's of 1.0 μg/mL or less = A); MIC AABA 1065 ([18]; Table 3): A (MIC's of less than 1.0 = A)
"N[C@H]1CCN2c3c(F)cc4c(=O)c(C(=O)O)cn(C5CC5)c4c3C=CC[C@H]12.O=C(O)C(F)(F)F [17/8, (7aR,8S)-8-Amino-4-cyclopropyl-12-fluoro-1-oxo-4,7,7a,8,9,10-hexahydro-1H-pyrrolo[1′,2′:1,7]azepino[2,3-h]quinoline-2-carboxylic acid trifluoroacetate]",A (MIC's of less than 1.0 = A),B (MIC's of 1.0 μg/mL to 2.0 μg/mL = B),B (MIC's of greater than 1.0 μg/mL to 8.0 μg/mL = B),A (MIC's of less than 1.0 = A),A (MIC's of 1.0 μg/mL or less = A),A (MIC's of less than 1.0 = A),C (MIC's of greater than 8.0 μg/mL = C),B (MIC's of 1.0 μg/mL to 2.0 μg/mL = B),A (MIC's of 1.0 μg/mL or less = A),A (MIC's of less than 1.0 = A),C (MIC's of greater than 8.0 μg/mL = C),D (MIC's of greater than 8.0 μg/mL = D),D (MIC's of greater than 8.0 μg/mL = D),A (MIC's of less than 1.0 = A),A (MIC's of less than 1.0 = A),C (MIC's of 2.0 μg/mL to 8.0 μg/mL = C),B (MIC's of greater than 1.0 μg/mL to 8.0 μg/mL = B),A (MIC's of less than 1.0 = A),A (MIC's of 1.0 μg/mL or less = A),A (MIC's of less than 1.0 = A),MIC APAE002 [15]: A (MIC's of less than 1.0 = A); MIC AECO 066 ([16]; Table 2): B (MIC's of greater than 1.0 μg/mL to 8.0 μg/mL = B); MIC AECO 066 ([16]; Table 3): C (MIC's of 2.0 μg/mL to 8.0 μg/mL = C); MIC ASPN 001 ([17]; Table 2): A (MIC's of 1.0 μg/mL or less = A); MIC ASPN 001 ([17]; Table 3): A (MIC's of less than 1.0 = A); MIC AABA 1065 ([18]; Table 2): A (MIC's of 1.0 μg/mL or less = A); MIC AABA 1065 ([18]; Table 3): A (MIC's of less than 1.0 = A)
"N[C@H]1CCN2c3c(F)cc4c(=O)c(C(=O)O)cn(C5CC5)c4c3CCC[C@H]12.O=C(O)C(F)(F)F [17/10, (7aR,8S)-8-Amino-4-cyclopropyl-12-fluoro-1-oxo-4,5,6,7,7a,8,9,10-octahydro-1H-pyrrolo[1′,2′:1,7]azepino-[2,3-h]quinoline-2-carboxylic acid trifluoroacetate]",A (MIC's of less than 1.0 = A),D (MIC's of greater than 8.0 μg/mL = D),B (MIC's of greater than 1.0 μg/mL to 8.0 μg/mL = B),B (MIC's of 1.0 μg/mL to 2.0 μg/mL = B),B (MIC's of greater than 1.0 μg/mL to 8.0 μg/mL = B),B (MIC's of 1.0 μg/mL to 2.0 μg/mL = B),C (MIC's of greater than 8.0 μg/mL = C),C (MIC's of 2.0 μg/mL to 8.0 μg/mL = C),A (MIC's of 1.0 μg/mL or less = A),A (MIC's of less than 1.0 = A),C (MIC's of greater than 8.0 μg/mL = C),D (MIC's of greater than 8.0 μg/mL = D),D (MIC's of greater than 8.0 μg/mL = D),A (MIC's of less than 1.0 = A),A (MIC's of less than 1.0 = A),D (MIC's of greater than 8.0 μg/mL = D),B (MIC's of greater than 1.0 μg/mL to 8.0 μg/mL = B),B (MIC's of 1.0 μg/mL to 2.0 μg/mL = B),A (MIC's of 1.0 μg/mL or less = A),A (MIC's of less than 1.0 = A),MIC APAE002 [15]: A (MIC's of less than 1.0 = A); MIC AECO 066 ([16]; Table 2): C (MIC's of greater than 8.0 μg/mL = C); MIC AECO 066 ([16]; Table 3): D (MIC's of greater than 8.0 μg/mL = D); MIC ASPN 001 ([17]; Table 2): A (MIC's of 1.0 μg/mL or less = A); MIC ASPN 001 ([17]; Table 3): A (MIC's of less than 1.0 = A); MIC AABA 1065 ([18]; Table 2): A (MIC's of 1.0 μg/mL or less = A); MIC AABA 1065 ([18]; Table 3): A (MIC's of less than 1.0 = A)
